Data published in patent US11266146B2, “Microbiocidal quinoline (thio)carboxamide derivatives” (SYNGENTA PARTICIPATIONS AG, priority 2017, dated 2022).

What was measured:
[1] = tested on: Botryotinia fuckeliana (Botrytis cinerea); experiment: Botryotinia fuckeliana (Botrytis cinerea) / liquid culture (Gray mould); format: cell-based; conditions: growth inhibition photometrically 3-4 days after application, vs untreated control
[2] = tested on: Glomerella lagenarium (Colletotrichum lagenarium); experiment: Glomerella lagenarium (Colletotrichum lagenarium) / liquid culture (Anthracnose); format: cell-based; conditions: Colletotrichum orbiculare, growth inhibition photometrically 3-4 days after application, vs untreated control
[3] = tested on: Fusarium culmorum; experiment: microbe, parasite or virus in culture; format: cell-based; conditions: read-out: control of Fusarium culmorum
[4] = tested on: Fusarium culmorum; experiment: whole plant or invertebrate; format: in vivo; conditions: in Triticum aestivum, 144 h, read-out: control of Fusarium culmorum
[5] = tested on: Magnaporthe grisea (Pyricularia oryzae); experiment: microbe, parasite or virus in culture; format: cell-based; conditions: read-out: control of Magnaporthe grisea
[6] = tested on: Monographella nivalis (Microdochium nivale); experiment: Monographella nivalis (Microdochium nivale) / liquid culture (foot rot cereals); format: cell-based; conditions: growth inhibition photometrically 4-5 days after application, vs untreated control

SMILES | inhibition of growth at 20 ppm [1] | inhibition of growth at 20 ppm [2] | inhibition of growth at 20 ppm [3] | pest or weed control at 200 ppm [4] | inhibition of growth at 20 ppm [5] | inhibition of growth at 20 ppm [6] | melting point
CC(Cc1cccc(F)n1)(CC(F)(F)F)NC(=O)c1cnc2c(F)cccc2c1 (stereo not shown) [E34] | ≥ 80% | ≥ 80% | ≥ 80% | ≥ 80% | ≥ 80% |  | 
Cc1nn(CC(C)(CC(C)C)NC(=O)c2cnc3c(F)cccc3c2)c(C)c1C (stereo not shown) [E20] | ≥ 80% | ≥ 80% | ≥ 80% |  |  | ≥ 80% | 140 to 144 °C
CON1CCC(CC(C)(CC(F)(F)F)NC(=O)c2cnc3c(F)cccc3c2)CC1 (stereo not shown) [E28] | ≥ 80% | ≥ 80% | ≥ 80% |  |  |  | 76 to 86 °C
Cc1cnc(CC(C)(CC(C)(C)C)NC(=O)c2cnc3c(F)cccc3c2)o1 (stereo not shown) [E1] | ≥ 80% | ≥ 80% | ≥ 80% |  |  | ≥ 80% | 
CC(CC1CCCOC1)(CC(F)(F)F)NC(=O)c1cnc2c(F)cccc2c1 (stereo not shown) [E38] | ≥ 80% | ≥ 80% | ≥ 80% |  | ≥ 80% | ≥ 80% | 85 to 88 °C
CC(C)CC(C)(Cc1cccs1)NC(=O)c1cnc2c(F)cccc2c1 (stereo not shown) [E12] | ≥ 80% | ≥ 80% | ≥ 80% | ≥ 80% | ≥ 80% |  | 
Cc1ccc(CC(C)(CC(C)C)NC(=O)c2cnc3c(F)cccc3c2)s1 (stereo not shown) [E13] | ≥ 80% | ≥ 80% | ≥ 80% |  | ≥ 80% |  | 
CC(C)CC(C)(CN1CCSCC1)NC(=O)c1cnc2c(F)cccc2c1 (stereo not shown) [E7] | ≥ 80% |  | ≥ 80% |  | ≥ 80% |  | 
CC(CC1CCOCC1)(CC(F)(F)F)NC(=O)c1cnc2c(F)cccc2c1 (stereo not shown) [E25] | ≥ 80% | ≥ 80% | ≥ 80% |  |  |  | 150 to 151 °C
CC(C)CC(C)(Cc1cnc(Cl)s1)NC(=O)c1cnc2c(F)cccc2c1 (stereo not shown) [E9] | ≥ 80% |  | ≥ 80% | ≥ 80% | ≥ 80% |  | 171 to 173 °C
Cc1cccc2cc(C(=O)NC(C)(Cc3cccc(F)n3)CC(F)(F)F)cnc12 (stereo not shown) [E33] | ≥ 80% | ≥ 80% | ≥ 80% | ≥ 80% | ≥ 80% | ≥ 80% | 
CC(C)CC(C)(CN1CCCCO1)NC(=O)c1cnc2c(F)cccc2c1 (stereo not shown) [E6] | ≥ 80% | ≥ 80% | ≥ 80% | ≥ 80% | ≥ 80% | ≥ 80% | 
Cc1cc(C)n(CC(C)(CC(C)C)NC(=O)c2cnc3c(F)cccc3c2)n1 (stereo not shown) [E21] | ≥ 80% | ≥ 80% | ≥ 80% |  | ≥ 80% | ≥ 80% | 
Cc1noc(CC(C)(CC(C)(C)C)NC(=O)c2cnc3c(F)cccc3c2)n1 (stereo not shown) [E2] | ≥ 80% | ≥ 80% | ≥ 80% |  | ≥ 80% |  | 
Cc1cc(C(F)(F)F)nn1CC(C)(CC(C)C)NC(=O)c1cnc2c(F)cccc2c1 (stereo not shown) [E16] |  |  |  |  | ≥ 80% |  | 140 to 144 °C
Cc1nn(CC(C)(CC(C)C)NC(=O)c2cnc3c(F)cccc3c2)c(C)c1Cl (stereo not shown) [E19] | ≥ 80% | ≥ 80% | ≥ 80% |  |  | ≥ 80% | 134 to 138 °C
CC(C)CC(C)(Cc1ccc(Cl)s1)NC(=O)c1cnc2c(F)cccc2c1 (stereo not shown) [E14, N-[1-[(5-chloro-2-thienyl)methyl]-1,3-dimethyl-butyl]-8-fluoro-quinoline-3-carboxamide] | ≥ 80% | ≥ 80% | ≥ 80% | ≥ 80% | ≥ 80% | ≥ 80% | 126 to 128 °C
Cc1c2ccccc2nn1CC(C)(CC(C)C)NC(=O)c1cnc2c(F)cccc2c1 (stereo not shown) [E17] | ≥ 80% |  | ≥ 80% |  |  | ≥ 80% | 
CC(C)C[C@](C)(CN1CCCC(F)(F)C1)NC(=O)c1cnc2c(F)cccc2c1 (single isomer, unassigned) [F1] | ≥ 80% | ≥ 80% | ≥ 80% |  | ≥ 80% |  | 

SMILES | inhibition of growth at 20 ppm [1] | inhibition of growth at 20 ppm [2] | inhibition of growth at 20 ppm [3] | pest or weed control at 200 ppm [4] | inhibition of growth at 20 ppm [5] | inhibition of growth at 20 ppm [6] | melting point
CC(C)CC(C)(CN1CCC(F)(F)CC1)NC(=O)c1cnc2c(F)cccc2c1 (stereo not shown) [E5] | ≥ 80% | ≥ 80% | ≥ 80% |  | ≥ 80% |  | 
CC(Cc1ccnc(F)c1)(CC(F)(F)F)NC(=O)c1cnc2c(F)cccc2c1 (stereo not shown) [E30] | ≥ 80% |  | ≥ 80% | ≥ 80% | ≥ 80% |  | 136 to 142 °C
CON1CCC(CC(C)(CC(F)(F)F)NC(=O)c2cnc3ccccc3c2)CC1 (stereo not shown) [E26] | ≥ 80% | ≥ 80% | ≥ 80% | ≥ 80% | ≥ 80% |  | 
Cc1cccc2cc(C(=O)NC(C)(CC3CCCOC3)CC(F)(F)F)cnc12 (stereo not shown) [E37] | ≥ 80% | ≥ 80% | ≥ 80% |  | ≥ 80% | ≥ 80% | 
CC1=NN(CC(C)(CC(C)C)NC(=O)c2cnc3c(F)cccc3c2)CCC1 (stereo not shown) [E23] | ≥ 80% | ≥ 80% | ≥ 80% |  |  | ≥ 80% | 
CC(Cc1ccc(F)nc1)(CC(F)(F)F)NC(=O)c1cnc2c(F)cccc2c1 (stereo not shown) [E29] | ≥ 80% | ≥ 80% | ≥ 80% |  |  |  | 70 to 74 °C
CC(CC1CCOCC1)(CC(F)(F)F)NC(=O)c1cnc2ccccc2c1 (stereo not shown) [E31] | ≥ 80% |  |  |  |  |  | 
Cc1cccc2cc(C(=O)NC(C)(CC3CCOCC3)CC(F)(F)F)cnc12 (stereo not shown) [E32] | ≥ 80% | ≥ 80% | ≥ 80% |  | ≥ 80% |  | 
CC(C)CC(C)(CN1CCCC=N1)NC(=O)c1cnc2c(F)cccc2c1 (stereo not shown) [E24] | ≥ 80% | ≥ 80% |  | ≥ 80% |  | ≥ 80% | 
Cc1nn(CC(C)(CC(C)C)NC(=O)c2cnc3c(F)cccc3c2)c2ccccc12 (stereo not shown) [E18] | ≥ 80% | ≥ 80% | ≥ 80% |  |  |  | 
CC(C)C[C@@](C)(CN1CCCC(F)(F)C1)NC(=O)c1cnc2c(F)cccc2c1 (single isomer, unassigned) [F2] | ≥ 80% | ≥ 80% | ≥ 80% | ≥ 80% | ≥ 80% | ≥ 80% | 
CON1CCC(CC(C)(CC(F)(F)F)NC(=O)c2cnc3c(C)cccc3c2)CC1 (stereo not shown) [E27] | ≥ 80% | ≥ 80% | ≥ 80% |  | ≥ 80% |  | 
CC(C)CC(C)(CN1CCC(=C(F)F)CC1)NC(=O)c1cnc2c(F)cccc2c1 (stereo not shown) [E4] | ≥ 80% | ≥ 80% | ≥ 80% |  | ≥ 80% |  | 
CC(C)CC(C)(CN1CCCC(F)(F)C1)NC(=O)c1cnc2c(F)cccc2c1 (stereo not shown) [E3] | ≥ 80% | ≥ 80% | ≥ 80% | ≥ 80% | ≥ 80% |  | 
Cc1cc(C(F)(F)F)n(CC(C)(CC(C)C)NC(=O)c2cnc3c(F)cccc3c2)n1 (stereo not shown) [E15] |  | ≥ 80% | ≥ 80% | ≥ 80% | ≥ 80% |  | 
CC(C)(C)CC(C)(Cc1ncco1)NC(=O)c1cnc2c(F)cccc2c1 (stereo not shown) [E11] | ≥ 80% | ≥ 80% | ≥ 80% |  |  |  | 
CC(CC1CCCOC1)(CC(F)(F)F)NC(=O)c1cnc2ccccc2c1 (stereo not shown) [E36] | ≥ 80% | ≥ 80% | ≥ 80% |  |  |  | 81 to 84 °C
CC(Cc1cccc(F)n1)(CC(F)(F)F)NC(=O)c1cnc2ccccc2c1 (stereo not shown) [E35] | ≥ 80% | ≥ 80% | ≥ 80% | ≥ 80% |  |  | 109 to 111 °C
Cc1ncc(CC(C)(CC(C)C)NC(=O)c2cnc3c(F)cccc3c2)s1 (stereo not shown) [E8] | ≥ 80% | ≥ 80% | ≥ 80% |  | ≥ 80% |  | 146 to 150 °C
